Patent publication US10137101B2, “Alkylamido compounds and uses thereof” (Nogra Pharma Limited, priority 2009, dated 2018)

Columns and labels:
[1] = tested on: IL-6; test: Inhibition of IL-6 protein induction by LPS in keratinocytes (ELISA); format: cell-based, human; settings: LPS 10 μg/ml, 24 h; 0.01-0.1-0.5 mM; FIG. 9
Protocol: Analysis of the inhibition by Compound A of the protein induction of IL-6 by LPS (lipopolysaccharide) was done with the ELISA kit. The keratinocytes were plated in wells of a 24-well plate. At 80% confluence, the cells were treated with LPS (10 μg/ml) in presence of compound A at the three concentrations (0.01-0.1-0.5 mM) for 24 h. At the end of the treatment, the supernatant was decanted, centrifuged so as to remove any cell detritus, and kept at −80° C. until the time of the analysis. The quantity of IL-6 present in the supernatant was normalized by the protein concentration of the sample itself.

[2] = tested on: IL-6; test: Inhibition of IL-6 mRNA induction by IFN-γ in keratinocytes (Real time RT-PCR); format: cell-based, human; settings: IFN-γ 30 ng/ml, 6 h; 0.01-0.1-0.5 mM; FIG. 7
Protocol: Analysis of the inhibition by compound A of the mRNA induction of the proinflammatory cytokine IL-6 by IFN-γ was done through Real time RT-PCR. The keratinocytes were plated in dishes of 6 cm/Ø.
At 80% confluence, the cells were treated with IFN-γ (30 ng/ml) in presence of compound A (N-Acetylged) at the three concentrations (0.01-0.1-0.5 mM) for 6 h.

[3] = tested on: sebocytes; test: MTT test on human sebocytes; format: cell-based; settings: 0.1-0.5-1-2 mM, 24 and 48 h; FIG. 10
Protocol: To assess the possible toxic or cytostatic effect of the substances under study, a spectrophotometric test (MTT) was carried out. The sebocytes were plated in wells of a 24-well plate in suitable medium with addition of antibiotics, calcium and EGF. At roughly 70% confluence, the cells were exposed to the presence of compound A, in various concentrations (0.1-0.5-1-2 mM), for 24 and 48 h. At the end of the treatment, the MTT test was performed. […] (FIG. 10)

[4] = tested on: sebocytes; test: Sebogenesis induced by LA and TST, fatty acids and squalene by GC-MS; format: cell-based, human; settings: compound 1 mM
Protocol: In order to evaluate in greater detail the inhibition by Compound A of sebogenesis induced by LA and TST, assays were performed on the lipid extract of the sebocytes using gas chromatography coupled with mass spectrometry (GC-MS). The sebocytes were treated by the scheme described for the Nile Red assay. At the end of the treatment, the cells were removed and then the lipid extraction was done by using organic solvents. One part of the extract was used to analyze the fatty acid composition, while the other part was used for the determination of the quantity of squalene, a lipid characteristic of sebum. […] (FIG. 12B)

[5] = tested on: Colitis in C57bI6 mice; test: Anti-murine colitis model (TNBS); format: in vivo
Protocol: Colitis in C57bI6 mice is induced by administering TNBS (150 mg/kg) by oral gavage on day −3. Stool samples were taken 8 hours after administration. At day 0-5, N-acetylated E2 (30 mM) was administrated by oral gavage. On day 5, mice were analyzed to obtain a mortality macroscopic score (Wallace, Gastroenterology 96: 29-36, 1989).

[6] = tested on: TNF-alpha; test: Inhibition of TNF-alpha mRNA induction by H2O2 in keratinocytes (Real time RT-PCR); format: cell-based, human; settings: H2O2 300 μM, 6 h, FIG. 6
Protocol: Analysis of the inhibition of compound A of the mRNA induction of the proinflammatory cytokine TNF-alpha by H2O2 was carried out by Real time RT-PCR. The keratinocytes were plated in dishes of 6 cm/Ø. At 80% confluence, the cells were treated with H2O2 (300 μM) in presence of Compound A at the three concentrations (0.01-0.1-0.5 mM) for 6 h. At the end of the treatment, the cells were lysed in a lysis buffer and subjected to isolation and subsequent retrotranscription of the RNA. […] (FIG. 6)

[7] = tested on: human primary keratinocytes; test: MTT test on human primary keratinocytes; format: cell-based; settings: 0.1-1-2 mM, 24 and 48 h; FIG. 5
Protocol: To assess the possible toxic or cytostatic effect of the substances under study, a spectrophotometric test (MTT) was carried out. The human primary keratinocytes, isolated from skin biopsies, were plated in wells of a 24-well plate in suitable medium with addition of antibiotics, calcium, and specific growth factors. At around 70% confluence, the cells were exposed to the presence of Compound A, at various concentrations (0.1-1-2 mM), for 24 and 48 h in suitable medium with addition of antibiotics, calcium, but no growth factors. This culture condition was done for all the subsequent experiments. At the end of the treatment, the MTT test was done.

[8] = tested on: sebocytes; test: Sebogenesis induced by linoleic acid and testosterone, Nile Red Assay; format: cell-based, human; settings: LA 10^-4M, TST 20 nM, compound 1 mM
Protocol: Analysis of the inhibition by (compound A) of sebogenesis induced by treatment with linoleic acid (LA) and with testosterone (TST) was evaluated by spectrofluorimetry, using Nile Red as selective marker of intracellular lipids (Nile Red Assay). The sebocytes were plated in wells of a 24-well plate. Next day, they were deprived of serum (2%) and after 24 h they were stimulated, for another 24 h, with LA (10^-4M), TST (20 nM) in presence or in absence of A (1 mM). At the end of the treatment, the sebocytes were stained with Nile Red. The quantitative analysis was done by spectrofluorimetry, which made it possible to distinguish between neutral lipids and polar lipids based on the different wavelength of excitation and emission. […] (FIG. 11).
Analysis of the inhibition by compound A of sebogenesis induced by treatment with linoleic acid (LA) and with testosterone (TST) was evaluated by spectrofluorimetry, using Nile Red as selective marker of intracellular lipids (Nile Red Assay). The sebocytes were plated in wells of a 24-well plate. […] The quantitative analysis was done by spectrofluorimetry, which made it possible to distinguish between neutral lipids and polar lipids based on the different wavelength of excitation and emission.

`CO[C@H](Cc1ccc(NC(C)=O)cc1)C(=O)O` [Compound A, N-acetyl-(R)-(−)-3-(4-aminophenyl)-2-methoxypropionic acid] was tested, and the “inhibition of protein expression of IL-6 induced by LPS” value [1] was “inhibit, in dose-dependent manner”, the “inhibition of mRNA expression of IL-6 induced by IFN-γ” value [2] was “inhibit the expression of the inflammatory cytokine induced by presence of IFN-γ which does not appear to be dose-dependent” and the “cell vitality (MTT)” value [3] was “no effects on cell vitality”. The “fatty acid assay of lipid extract (lipidogenic stimulus)” value ([4]; FIG. 12A) was “reduced”, the “squalene analysis of lipid extract” value ([4]; FIG. 12B) was “confirmed” and the “% mortality” value ([5]; TNBS 150 mg/kg oral gavage day -3, N-acetylated E2 30 mM oral gavage day 0-5, versus TNBS alone, FIG. 1) was “comparable”. The “MPO (myleoperoxidase) activity” value ([5]; TNBS + N-acetyl E2 30 mM oral gavage versus TNBS alone, FIG. 3) was “decreased”, the “colonic inflammation (Ameho score)” value ([5]; TNBS + N-acetyl E2 30 mM oral gavage versus TNBS alone, FIG. 4) was “colonic inflammation had decreased” and the “level of colonic lesions (Wallace macroscopic score)” value ([5]; TNBS + N-acetyl E2 30 mM oral gavage versus TNBS alone, day 5, FIG. 2) was “significantly less”. For the same compound, the “inhibition of expression of mRNA of TNF-α induced by H2O2, higher dose” value ([6]; higher dose (0.5 mM), effect similar to troglitazone) was “complete inhibition”, the “inhibition of expression of mRNA of TNF-α induced by H2O2” value ([6]; two higher doses (0.1 mM; 0.5 mM)) was “able to inhibit” and the “cellular vitality (MTT)” value [7] was “did not show any effect on cellular vitality”. The “inhibition of sebogenesis (intracellular lipids, Nile Red)” value ([8]; 24 h, FIG. 11, FIG. 13) was “able to reduce the lipidogenic stimulus” and the “influence of times of treatment on inhibition of sebogenesis (Nile Red)” value ([8]; FIG. 13) was “No differences were observed”.
